Results reported in US20040024038A1, “GABA enhancers in the treatment of diseases relating to reduced neurosteroid activity” (H. Lundbeck A/S, priority 2000, published 2004).
“Also recorded” adds a separate entry of the source.

Experiments:
Female mice = test: Elevated plus maze in progesterone withdrawal (PWD) model of PMS; type: in vivo; conditions: for Time Open Arm, Mean / Grid Cross, Mean (number of total grid crosses, general locomotor activity) / Time Outside Rail, Mean: THIP 1.25 mg/kg; for Time Open Arm, Mean: tested 40 minutes after injection, 10 min plus maze; for Grid Cross, Mean (number of total grid crosses, general locomotor activity) / Time Outside Rail, Mean: 40 minutes after injection
Protocol: The described model is a hormone withdrawal model of PMS in the rat, based on the prevailing hypothesis that dysphoric mood is predominantly associated with declining hormone levels (i.e., “hormone withdrawal”) in women with PMS.
Female mice (Charles River) were housed in pairs under a 14 hour light and 10 hour dark cycle with food and water ad libitum. All animals were tested during the light portion of the circadian cycle. In female mice, estrous cycle stage was determined by microscopic examination of the vaginal lavage, as described previously (Smith, 1987) and by measures of vaginal impedance (Bartlewski, 1999; Bartos, 1977; Koto, 1987; Koto, 1987) throughout one entire cycle prior to testing. Only females in diestrous were used as subjects.
Progesterone implants were made from silicone tubing (Nalgene Co, 1/16″i.d×1/8″ o.d.) which was cut to size depending on the body weight of the animal (10 mm tubing per 100 g), filled with crystalline progesterone and sealed with silastic medical adhesive (Dow Corning). The sealed capsules were incubated overnight in a solution containing 1% gelatine and 0.9% saline in a water bath (37° C.) with gentle shaking overnight. Sham implants are empty sealed tubes of the same dimensions. Rats were then anesthestized with 2% halothane (2-bromo-2-chloro-1,1,1-trifluroethane) in oxygen and the capsules implanted subcutaneously in the abdomen. Removal of the implants also occurred under the same regime of halothane anesthesia, and implanted s.c. under anesthesia in the abdominal area of the rat (Smith, 1998; Moran, 1998) for 21 days.
Control animals were implanted exactly the same way with empty (sham) silicone capsules. Animals were either sacrificed or tested 24 hrs after removal of the implant (P withdrawal).
On the day of testing, animals were injected with either THIP (1.25 mg/kg) or saline and tested 40 minutes after the injection.
Mice were tested on the plus maze, elevated 50 cm above the floor, in a room with low, indirect incandescent lighting and low noise levels. The plus maze consists of 2 enclosed arms (50×10×40 cm) and 2 open arms (50×10 cm) and is explained in detail in (Pellow, 1985).
The floor of all four arms was marked with grid lines every 25 cm. On the day of testing, each mouse was placed in the testing room for 30-40 minutes prior to testing in order to acclimatise to the situations. At the time of testing, each animal was tested for 10 minutes after exiting a start box in the centre platform of the plus maze. To be considered as an entry into any arm, the mouse must pass the line of the open platform with all four paws. The duration (in seconds) of time spent in the open arm was recorded from the time of entry into the open arm. Decreased time spent in the open arm generally indicates higher levels of anxiety (Pellow, 1985). Other behavioural measures recorded included the duration of time spent (in seconds) beyond the rail. The amount of time that subjects spend in the open portion of the plus maze in the absence of rails is considered to be more sensitive to anxiolytic agents (i.e. agents that would increase the amount of time spent in the open arm) than the amount of time spent in the open arms with rails (Fernandes, 1996). In order to measure general locomotor activity, the number of total grid crosses was counted. Lastly, the duration of time (in sec) spent grooming was also scored. The experimenter was blind to all conditions, and animals were tested in a randomised block design.
Data from the plus maze were analysed in a 2-way ANOVA (implant condition×injection condition) followed by a post-hoc ANOVA and post hoc t-test.

hippocampal cells = hippocampal cells after progesterone withdrawal; previous work; cited from earlier work
[1] = female control (sham implant) mice

SMILES | Reversal of the PWD effect in the plus maze (Female mice; PWD mice, dose of 1.25 mg/kg, 1.25 mg/kg) | Time Open Arm, Mean (Female mice; female PWD mice (24 hrs after removal of progesterone implant)) | Grid Cross, Mean (number of total grid crosses, general locomotor activity) (Female mice; female PWD mice) | Time Outside Rail, Mean (Female mice; female PWD mice) | Grid Cross, Mean (number of total grid crosses, general locomotor activity) (Female mice; [1]) | Time Outside Rail, Mean (Female mice; [1]) | Time Open Arm, Mean (Female mice; [1]) | Sensitivity of hippocampal cells to the GABA-potentiating effect (hippocampal cells)
Oc1noc2c1CCNC2 [THIP, THIP (Gaboxadol)] | completely reversed the PWD effect; also recorded: counteract the PWD completely | 157.023 s | 83.333 | 29.503 s | 52.000 | 10.060 s | 38.377 s | 
O=C1Nc2ccc(Cl)cc2C(c2ccccc2Cl)=NC1O (centres unmarked) [lorazepam] |  |  |  |  |  |  |  | striking insensitivity
